Among the data in US7411083B2, “Substituted acetic acid derivatives” (Wyeth, priority 2003, dated 2008) are inhibition values, retold here.

In the experiment the target is T1, recombinant human plasminogen activator inhibitor-1 (PAI-1) (Homo sapiens, UniProt P05121).
T1 construct: purchased Molecular Innovations, Royal Oak, Mich
T1 sequence (P05121 24-402): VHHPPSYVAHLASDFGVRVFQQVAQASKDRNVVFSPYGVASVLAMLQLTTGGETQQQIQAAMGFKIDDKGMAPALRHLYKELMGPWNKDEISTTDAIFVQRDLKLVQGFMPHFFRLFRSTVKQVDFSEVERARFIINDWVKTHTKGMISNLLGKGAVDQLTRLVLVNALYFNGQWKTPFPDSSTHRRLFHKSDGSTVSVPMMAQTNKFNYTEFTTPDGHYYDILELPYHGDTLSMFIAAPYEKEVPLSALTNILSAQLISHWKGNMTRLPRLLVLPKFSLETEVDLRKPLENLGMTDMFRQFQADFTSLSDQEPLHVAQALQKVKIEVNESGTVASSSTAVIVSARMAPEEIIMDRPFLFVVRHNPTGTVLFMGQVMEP
Description: Screening for PAI-1 inhibition (residual tPA activity, Spectrozyme-tPA chromogenic substrate). The note with it: test compound at 100 Um; pH 6.6 buffer, 140 nM PAI-1, 70 nM tPA. The class given is biochemical. The protocol: Screening for PAI-1 inhibition. Test compounds are dissolved in DMSO at a final concentration of 10 Mm, then diluted 100× in physiologic buffer. The inhibitory assay is initiated by the addition of the test compound (1-100 μM final concentration, maximum DMSO concentration of 0.2%) in a Ph 6.6 buffer containing 140 Nm recombinant human plasminogen activator inhibitor-1 (PAI-1; Molecular Innovations, Royal Oak, Mich.). Following a 1 hour incubation at room temperature, 70 Nm of recombinant human tissue plasminogen activator (Tpa) is added, and the combination of the test compound, PAI-1 and Tpa is incubated for an additional 30 minutes. Following the second incubation, Spectrozyme-Tpa (American Diagnostica, Greenwich, Conn.), a chromogenic substrate for Tpa, is added and absorbance read at 405 nm at 0 and 60 minutes. Relative PAI-1 inhibition is equal to the residual Tpa activity in the presence of the test compounds and PAI-1. Control treatments include the complete inhibition of Tpa by PAI-1 at the molar ratio employed (2:1), and the absence of any effect of the test compound on Tpa alone.
In the case of `C=CCn1cc(/C=N/OCC(=O)O)c2cc(OCc3ccc(C(F)(F)F)cc3)ccc21` [Compound 1, ({[(1E)-(1-allyl-5-{[4-(trifluoromethyl)benzyl]oxy}-1H-indol-3-yl)methylidene]amino}oxy)acetic acid], the inhibition at 100 µM is 86%.

With `CCn1cc(/C=N/OCC(=O)O)c2cc(OCc3ccc(C(F)(F)F)cc3)ccc21` [Compound 2, ({[(1E)-(1-ethyl-5-{[4-(trifluoromethyl)benzyl]oxy}-1H-indol-3-yl)methylidene]amino}oxy)acetic acid], the inhibition at 100 µM was determined as 83%. Consider `C=CCn1cc(/C=N/OCC(=O)O)c2cc(OCc3ccc(C(C)(C)C)cc3)ccc21` [Compound 4, {[((1E)-{1-allyl-5-[(4-tert-butylbenzyl)oxy]-1H-indol-3-yl}methylidene)amino]oxy}acetic acid], for which the inhibition at 100 µM was determined as 83%. The same measure for `CCn1cc(/C=N/OCC(=O)O)c2cc(OCc3ccc(C(C)(C)C)cc3)ccc21` [Compound 5, {[((1E)-{5-[(4-tert-butylbenzyl)oxy]-1-ethyl-1H-indol-3-yl}methylidene)amino]oxy}acetic acid]: 93%. The same measure for `CC(C)(C)c1ccc(COc2ccc3c(c2)c(/C=N/OCC(=O)O)cn3Cc2ccccc2)cc1` [Compound 6, {[((1E)-{1-benzyl-5-[(4-tert-butylbenzyl)oxy]-1H-indol-3-yl}methylidene)amino]oxy}acetic acid]: 68%. The same measure for `C=CCn1cc(/C=N/OCC(=O)O)c2cc(OCc3ccc(Br)cc3)ccc21` [Compound 7, {[((1E)-{1-allyl-5-[(4-bromobenzyl)oxy]-1H-indol-3-yl}methylidene)amino]oxy}acetic acid]: 83%; for `CCn1cc(/C=N/OCC(=O)O)c2cc(OCc3ccc(Br)cc3)ccc21` [Compound 8, {[((1E)-{5-[(4-bromobenzyl)oxy]-1-ethyl-1H-indol-3-yl}methylidene)amino]oxy}acetic acid]: 63%; for `C=CCn1cc(/C=N/OCC(=O)O)c2cc(OCc3cc(C(F)(F)F)cc(C(F)(F)F)c3)ccc21` [Compound 10, ({[(1E)-(1-allyl-5-{[3,5-bis(trifluoromethyl)benzyl]oxy}-1H-indol-3-yl)methylidene]amino}oxy)acetic acid]: 86%. Take `CCn1cc(/C=N/OCC(=O)O)c2cc(OCc3cc(C(F)(F)F)cc(C(F)(F)F)c3)ccc21` [Compound 11, ({[(1E)-(5-{[3,5-bis(trifluoromethyl)benzyl]oxy}-1-ethyl-1H-indol-3-yl)methylidene]amino}oxy)acetic acid]: the inhibition at 100 µM worked out at 71%. For `O=C(O)CO/N=C/c1cn(Cc2ccccc2)c2ccc(OCc3cc(C(F)(F)F)cc(C(F)(F)F)c3)cc12` [Compound 12, ({[(1E)-(1-benzyl-5-{[3,5-bis(trifluoromethyl)benzyl]oxy}-1H-indol-3-yl)methylidene]amino}oxy)acetic acid], the inhibition at 100 µM was determined as 57%. The result for `C=CCn1cc(/C=N/OCC(=O)O)c2cc(OCc3cccc(Br)c3)ccc21` [Compound 13, {[((1E)-{1-allyl-5-[(3-bromobenzyl)oxy]-1H-indol-3-yl}methylidene)amino]oxy}acetic acid] reads 95%; that for `CCn1cc(/C=N/OCC(=O)O)c2cc(OCc3cccc(Br)c3)ccc21` [Compound 14, {[((1E)-{5-[(3-bromobenzyl)oxy]-1-ethyl-1H-indol-3-yl}methylidene)amino]oxy}acetic acid], 80%; that for `O=C(O)CO/N=C/c1cn(Cc2ccccc2)c2ccc(OCc3cccc(Br)c3)cc12` [Compound 15, {[((1E)-{1-benzyl-5-[(3-bromobenzyl)oxy]-1H-indol-3-yl}methylidene)amino]oxy}acetic acid], 71%. The result for `C=CCn1cc(/C=N/OCC(=O)O)c2cc(OCc3cccc(Cl)c3)ccc21` [Compound 16, {[((1E)-{1-allyl-5-[(3-chlorobenzyl)oxy]-1H-indol-3-yl}methylidene)amino]oxy}acetic acid] reads 58%; that for `CCn1cc(/C=N/OCC(=O)O)c2cc(OCc3cccc(Cl)c3)ccc21` [Compound 17, {[((1E)-{5-[(3-chlorobenzyl)oxy]-1-ethyl-1H-indol-3-yl}methylidene)amino]oxy}acetic acid], 68%; that for `O=C(O)CO/N=C/c1cn(Cc2ccccc2)c2ccc(OCc3cccc(Cl)c3)cc12` [Compound 18, {[((1E)-{1-benzyl-5-[(3-chlorobenzyl)oxy]-1H-indol-3-yl}methylidene)amino]oxy}acetic acid], 84%. The same measure for `C=CCn1cc(/C=N/OCC(=O)O)c2cc(OCc3ccc(C)cc3)ccc21` [Compound 19, {[((1E)-{1-allyl-5-[(4-methylbenzyl)oxy]-1H-indol-3-yl}methylidene)amino]oxy}acetic acid]: 73%; for `CCn1cc(/C=N/OCC(=O)O)c2cc(OCc3ccc(C)cc3)ccc21` [Compound 20, {[((1E)-{1-ethyl-5-[(4-methylbenzyl)oxy]-1H-indol-3-yl}methylidene)amino]oxy}acetic acid]: 44%.

For `Cc1ccc(COc2ccc3c(c2)c(/C=N/OCC(=O)O)cn3Cc2ccccc2)cc1` [Compound 21, {[((1E)-{1-benzyl-5-[(4-methylbenzyl)oxy]-1H-indol-3-yl}methylidene)amino]oxy}acetic acid], the inhibition at 100 µM was determined as 80%. The same measure for `C=CCn1cc(/C=N/OCC(=O)O)c2cc(OCc3cccc(C(F)(F)F)c3)ccc21` [Compound 22, ({[(1E)-(1-allyl-5-{[3-(trifluoromethyl)benzyl]oxy}-1H-indol-3-yl)methylidene]amino}oxy)acetic acid]: 80%; for `CCn1cc(/C=N/OCC(=O)O)c2cc(OCc3cccc(C(F)(F)F)c3)ccc21` [Compound 23, ({[(1E)-(1-ethyl-5-{[3-(trifluoromethyl)benzyl]oxy}-1H-indol-3-yl)methylidene]amino}oxy)acetic acid]: 56%; for `O=C(O)CO/N=C/c1cn(Cc2ccccc2)c2ccc(OCc3cccc(C(F)(F)F)c3)cc12` [Compound 24, ({[(1E)-(1-benzyl-5-{[3-(trifluoromethyl)benzyl]oxy}-1H-indol-3-yl)methylidene]amino}oxy)acetic acid]: 79%. On to `C=CCn1cc(/C=N/OCC(=O)O)c2cc(OCc3cccc(C)c3)ccc21` [Compound 25, {[((1E)-{1-allyl-5-[(3-methylbenzyl)oxy]-1H-indol-3-yl}methylidene)amino]oxy}acetic acid], for which the inhibition at 100 µM was 68%.

Take `CCn1cc(/C=N/OCC(=O)O)c2cc(OCc3cccc(C)c3)ccc21` [Compound 26, {[((1E)-{1-ethyl-5-[(3-methylbenzyl)oxy]-1H-indol-3-yl}methylidene)amino]oxy}acetic acid]: the inhibition at 100 µM turned out to be 26%. For the molecule `Cc1cccc(COc2ccc3c(c2)c(/C=N/OCC(=O)O)cn3Cc2ccccc2)c1` [Compound 27, {[((1E)-{1-benzyl-5-[(3-methylbenzyl)oxy]-1H-indol-3-yl}methylidene)amino]oxy}acetic acid], the inhibition at 100 µM amounted to 99%.

For the molecule `CCn1cc(/C=N/OCC(=O)O)c2cc(OCc3ccccc3Cl)ccc21` [Compound 28, {[((1E)-{5-[(2-chlorobenzyl)oxy]-1-ethyl-1H-indol-3-yl}methylidene)amino]oxy}acetic acid], the inhibition at 100 µM turned out to be 70%.

As for `O=C(O)CO/N=C/c1cn(Cc2ccccc2)c2ccc(OCc3ccccc3Cl)cc12` [Compound 29, {[((1E)-{1-benzyl-5-[(2-chlorobenzyl)oxy]-1H-indol-3-yl}methylidene)amino]oxy}acetic acid], the inhibition at 100 µM stood at 82%. For `O=C(O)CO/N=C/c1c[nH]c2ccc(OCc3ccccc3Cl)cc12` [Compound 30, {[((1E)-{5-[(2-chlorobenzyl)oxy]-1H-indol-3-yl}methylidene)amino]oxy}acetic acid], the inhibition at 100 µM turned out to be 11%. The result for `C#CCn1cc(/C=N/OCC(=O)O)c2cc(OCc3ccc(C(F)(F)F)cc3)ccc21` [Compound 31, ({[(1E)-(1-(2-propynyl)-5-{[4-(trifluoromethyl)benzyl]oxy}-1H-indol-3-yl)methylidene]amino}oxy)acetic acid] reads 90%; that for `C#CCn1cc(/C=N/OCC(=O)O)c2cc(OCc3ccc(C(C)(C)C)cc3)ccc21` [Compound 33, [({(1E)-[5-[(4-tert-butylbenzyl)oxy]-1-(2-propynyl)-1H-indol-3-yl]methylidene}amino)oxy]acetic acid], 91%; that for `Cn1cc(/C=N/OCC(=O)O)c2cc(OCc3ccc(C(C)(C)C)cc3)ccc21` [Compound 34, {[((1E)-{5-[(4-tert-butylbenzyl)oxy]-1-methyl-1H-indol-3-yl}methylidene)amino]oxy}acetic acid], 88%. The same measure for `C#CCn1cc(/C=N/OCC(=O)O)c2cc(OCc3cc(C(F)(F)F)cc(C(F)(F)F)c3)ccc21` [Compound 35, [({(1E)-[5-{[3,5-bis(trifluoromethyl)benzyl]oxy}-1-(2-propynyl)-1H-indol-3-yl]methylidene}amino)oxy]acetic acid]: 44%.
